Data as given in patent publication US9910031B2, “Compositions and methods for modulating c-Rel-dependent cytokine production” (Synta Pharmaceuticals Corporation, priority 2003, dated 2018).

Key:
IL-12 p35 mRNA = test: Northern blot of IL-12 p35 mRNA in IFN-γ/SAC-stimulated human PBMC; format: cell-based; settings: hPBMC
Procedure: Northern blot analysis was performed to examine the mRNA levels of IL-12 p35 and p40. Human PBMC and the human monocyte cell line THP-1 cells were stimulated with IFN-γ/SAC in the presence or absence of Compound 1. Human PBMC were isolated by centrifugation using Ficoll-Paque (Pharmacia Biotech, Uppsala, Sweden) and prepared in RPMI medium supplemented with 10% fetal calf serum (FCS), 100 U/ml penicillin, and 100 μg/ml streptomycin, in a 96-well plate with 5×10^5 cells/well. The cells were then primed with IFN-γ (100 U/ml) and followed by 0.01% SAC or 1 μg/ml LPS, in the presence of different concentrations of Compound 2 or other compounds. The test compounds were prepared in DMSO and the final DMSO concentration was adjusted to 0.25% in all cultures, including the compound-free control. Cell-free supernatants were taken 18 h later for the measurement of cytokines. The THP-1 cells were obtained from American Type Culture Collection (Manassas, Va.) and were cultured in RPMI 1640 (ATCC, Manassas, Va.), supplemented with 10% FCS (ATCC, Manassas, Va.), and 1% penicillin/Streptomycin (Gibco-BRL, New York, N.Y.). Total RNA was isolated and subjected to Northern blot analysis using IL-12 p35 and p40 cDNA probes. We first examined the kinetics of mRNA accumulation in cultures of hPBMC and THP-1 cells primed with IFN-γ followed by SAC stimulation in the presence or absence of 1 μM Compound 1.
We conducted a dose-response study of the inhibitory effects of Compound 1 on IL-12 mRNA expression in IFN-γ/SAC-stimulated hPBMC. Because both IL-12 p35 and p40 mRNA levels were maximal at 6 h after the addition of SAC, this time point was selected for the dose-response analysis.

p50 = test: Western blot of nuclear p50 in THP-1 cells; format: cell-based, human
Excerpt: In order to understand this changes, the subcellular localization of NF-κB proteins was investigated using western blot analysis.
Of the transcription factors that have been analyzed, two factors, ICSBP and c-Rel, seem to be affected by Compound 1/Compound 2 treatment. ICSBP binds indirectly to the Ets-2 site. The primary NFκB trans-activator for IL-12 is the c-Rel/p50 heterodimer. Other dimers (p65/p50 and p50/p50) either lack activity or have inhibitory functions. Thus, c-Rel plays a role in IL-12 transcription as a result of both activation through NFκB and its interaction with ICSBP. […] The membranes were blocked with 5% milk in TBST buffer and then incubated with anti-c-Rel, anti-p65, anti-p50, anti-ICSBP or anti-PU-1 antibody (all the antibodies were purchased from Santa Cruz) at a dilution of 1:500 for 1 h at room temperature or overnight at 4° C. The membranes were washed and incubated with Horseradish Peroxidase-conjugated anti-rabbit IgG or anti-mouse IgG (Amersham, England) at a dilution of 1:2000 at room temperature for 1 h.
Compound 2 impairs nuclear translocation of c-Rel and p50. We examined the nuclear translocation kinetics of NF-kB family members in LPS stimulated cells treated with Compound 2. THP1 cells were stimulated with LPS in either the presence or absence of 100 nM Compound 2, and the distribution of the NF-κB Rel family members are determined by immunoblotting nuclear (n.p.) extracts collected at 5 min, 15 min, 30 min, 1 h, 3 h and 6 h post-treatment. In response to LPS stimulation, p50 translocated into the nucleus as early as 5 minutes post-stimulation and accumulates as time goes on (FIG. 7, immunoblots and FIG. 8 densitometry). […] The experiment examining p65 nuclear translocation is shown in FIG. 9 (immunoblots) and FIG. 10 (densitometry). In LPS stimulated cells, p65 translocated into the nucleus as early as 5 minutes post-stimulation and accumulated to maximum levels at 15-30 minutes post-stimulation. Treatment of LPS-stimulated cells with Compound 2 had no effect on the kinetics of p65 nuclear entry.
THP-1 cells were suspended in 20 volumes of buffer A containing 10 mM KCl, 10 mM HEPES (pH 7.9), 1 mM MgCl2, 1 mM dithiothreitol (DTT), 0.1% Nonidet p40 (NP-40), and 0.5 mM phenylmethylsulfonyl fluoride (PMSF) and homogenized and centrifuged at 10,000 rpm at 4 C for 5 min. Nuclear pellets were then suspended in buffer C containing 400 mM NaCl, 20 mM HEPES 9 pH 7.9), 15 mM MgCl2, 0.2 mM EDTA, 1 mM DTT, 25% glycerol, 1 mM PMSF, and 10 ug of leupeptin, 20 ug of pepstatin, and 10 ug/ml antipain, incubated for 30 min at 4 C, and centrifuged at 14,000 rpm for 20 min. The supernatants were dialyzed against buffer D containing 100 mM NaCl, 20 mM HEPES (pH 7.9), 20% glycerol, 1 mM PMSF, and 1 mM DTT. […]

Structure (SMILES) | IC50 (IL-12 p35 mRNA; Homo sapiens, PBMC, 6 h after SAC, read-out: IC50, IL-12 p35 mRNA accumulation) [nM] | expression of p35 mRNA (IL-12 p35 mRNA; 1 μM Compound 1, all sampling times) | induction of IL-12 p35 mRNA accumulation (IL-12 p35 mRNA; 6 h after SAC, 3 nM) | amount of p50 protein in nuclear (p50; 500 nM, 3 hr, relative to untreated cells) | nuclear p50 levels (FIG. 4) (p50; THP1, IFN-γ plus LPS or IFN-γ plus SAC) | kinetics of p50 nuclear entry (p50; THP1, LPS, 100 nM, 5 minutes to 1 hr post-stimulation) | nuclear p50 protein levels (p50; THP1, LPS, 100 nM, 3 hours)
C(=NNc1nc(OCCc2ccccn2)nc(N2CCOCC2)n1)c1c[nH]c2ccccc12 [Compound 1, N-(1H-indol-3-ylmethylene)-N′-[4-morpholin-4-yl-6-(2-pyridin-2-yl-ethoxy)-[1,3,5]triazin-2-yl]-hydrazine] | < 1 | completely inhibited | completely reversed |  |  |  | 
Cc1cccc(C=NNc2cc(N3CCOCC3)nc(OCCc3ccccn3)n2)c1 [Compound 2, N-(3-methyl-benzylidene)-N′-[6-morpholin-4-yl-2-(2-pyridin-2-yl-ethoxy)-pyrimidin-4-yl]-hydrazine] |  |  |  | decreased | decreased slightly | no effect | small decrease
